Measured values taken from US20250205200A1, “5-METHOXY-N,N-[…][…] THE TREATMENT OF […]” (GH RESEARCH IRELAND LIMITED, priority 2022, published 2025).

Legend:
human plasma protein = assay: Plasma binding of 5-MIAA; assay type: in vitro ADME; details: estimated from fu and glomerular filtration rate 90-120 ml/min
human hepatocytes = assay: Metabolic stability in Hμrel human hepatocyte co-culture assay; assay type: in vitro ADME; details: for Metabolic turnover: human hepatocytes
[1] = rat; cited from earlier work
[2] = Pharmacokinetics of 5-MeO-DMT and bufotenine after inhalation; assay type: in vivo, human
patients with PPD = details: cited from earlier work

5-Methoxyindole acetic acid [5-Methoxyindole acetic acid (5-MIAA)]
Time until removed from circulation for urinary excretion (human plasma protein): 1 to 2 h
Metabolic turnover (human hepatocytes): low metabolic turnover
Remaining abundance after 72 h (human hepatocytes; in the presence of hepatocytes, 1 and 10 μM): 75-82%
Disappearance with stromal cell controls (human hepatocytes): no disappearance

COc1ccc2[nH]cc(CC[N+](C)(C)[O-])c2c1 [5-MeO-DMT-N-oxide]
Excretion [1]: rapid excretion

COc1ccc2[nH]cc(CCO)c2c1 [5-Methoxyindole-3-ethanol]
Relative LC/MS peak area remaining (human hepatocytes; 1 μM Stromal cells, 4 h): 97%
Relative LC/MS peak area remaining (human hepatocytes; 1 μM Stromal cells, 8 h): 107%
Relative LC/MS peak area remaining (human hepatocytes; 1 μM Stromal cells, 24 h): 94%
Relative LC/MS peak area remaining (human hepatocytes; 1 μM Stromal cells, 48 h): 102%
Relative LC/MS peak area remaining (human hepatocytes; 1 μM Stromal cells, 72 h): 104%
Relative LC/MS peak area remaining (human hepatocytes; 10 μM Stromal cells, 4 h): 99%
Relative LC/MS peak area remaining (human hepatocytes; 10 μM Stromal cells, 8 h): 105%
Relative LC/MS peak area remaining (human hepatocytes; 10 μM Stromal cells, 24 h): 86%
Relative LC/MS peak area remaining (human hepatocytes; 10 μM Stromal cells, 48 h): 98%
Relative LC/MS peak area remaining (human hepatocytes; 10 μM Stromal cells, 72 h): 104%
Metabolic turnover (human hepatocytes): high metabolic turnover
Disappearance with stromal cell controls (human hepatocytes): no disappearance

CN(C)CCc1c[nH]c2ccc(O)cc12 [Bufotenine (5-OH-DMT), Bufotenine]
Detection of bufotenine in human serum ([2]; 15 minutes after administration of 5-MeO-DMT): In no case is it detected
Detection of bufotenine in human serum ([2]; after administration of 5-MeO-DMT): barely detected
Samples with bufotenine concentration above LLOQ (25 pg/ml) ([2]; after inhaled 5-MeO-DMT): Only in few samples

CC(=O)[C@H]1CC[C@H]2[C@@H]3CC[C@H]4C[C@H](O)CC[C@]4(C)[C@H]3CC[C@]12C [brexanolone]
HAM-D scores (patients with PPD; one phase 3 trial, 30 days after initiation of infusion): significantly reduced
Efficacy (HAM-D) (patients with PPD; other phase 3 trial): failed to show efficacy beyond 7 days
